Test results published in the supplement of paper PMC10307832.

How the values were obtained:
Experiment in all cases: relative viability (nuclei count vs DMSO), 5 days (fraction); higher = more cells survive
[1] = compound: CS(=O)(=O)c1ccc(-c2cnc(N)c(C(=O)Nc3ccccc3)n2)cc1 [VE-821] + Cc1nc(NC(=O)N2CCC[C@H]2C(N)=O)sc1-c1ccnc(C(C)(C)C(F)(F)F)c1 [Alpelisib] (partner 2 µM)
Summary of the method: (§1)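 Values are medians from duplicate plates. Each reflects relative viability, defined as the nuclei count of treated wells over that of vehicle wells. Lung cancer cell lines in 1536-well plates were pin-tool dosed one day after seeding with one drug alone or with a fixed anchor-drug dose plus five library-drug doses (not always all listed) in √10 steps, then fixed, stained and imaged at 4× after 5 days.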

[2] = compound: CS(=O)(=O)c1ccc(C(=O)Nc2ccc(Cl)c(-c3ccccn3)c2)c(Cl)c1 [Vismodegib] + CC(=O)Nc1cccc(-n2c(=O)n(C3CC3)c(=O)c3c(Nc4ccc(I)cc4F)n(C)c(=O)c(C)c32)c1 [Trametinib] (partner 0.02 µM)
Summary of the method: as §1

[3] = compound: CS(=O)(=O)c1ccc(C(=O)Nc2ccc(Cl)c(-c3ccccn3)c2)c(Cl)c1 [Vismodegib] + O=C(CCCCCCC(=O)Nc1ccccc1)NO [Vorinostat] (partner 1 µM)
Summary of the method: as §1

[4] = compound: N#CC[C@H](C1CCCC1)n1cc(-c2ncnc3[nH]ccc23)cn1 [Ruxolitinib] + Cc1nc(Nc2ncc(C(=O)Nc3c(C)cccc3Cl)s2)cc(N2CCN(CCO)CC2)n1 [Dasatinib] (partner 0.075 µM)
Summary of the method: as §1

Cell Line	relative viability ([1]; first compound 0.08 µM)	relative viability ([1]; first compound 0.253 µM)	relative viability ([1]; first compound 0.8 µM)	relative viability ([1]; first compound 2.53 µM)	relative viability ([1]; first compound 8 µM)	relative viability ([2]; first compound 0.08 µM)	relative viability ([2]; first compound 0.253 µM)	relative viability ([2]; first compound 0.8 µM)	relative viability ([2]; first compound 2.53 µM)	relative viability ([2]; first compound 8 µM)	relative viability ([3]; first compound 0.08 µM)	relative viability ([3]; first compound 0.253 µM)	relative viability ([3]; first compound 0.8 µM)	relative viability ([3]; first compound 2.53 µM)	relative viability ([3]; first compound 8 µM)	relative viability ([4]; first compound 0.08 µM)	relative viability ([4]; first compound 0.253 µM)	relative viability ([4]; first compound 0.8 µM)	relative viability ([4]; first compound 2.53 µM)	relative viability ([4]; first compound 8 µM)
201T	1.11	1.03	0.878	1.09	0.85	0.724	0.721	0.737	0.698	0.657	0.956	0.952	0.973	0.977	0.924	0.571	0.593	0.67	0.558	0.558
HOP-62	1.09	0.646	0.723	0.928	0.93	0.357	0.379	0.37	0.354	0.376	0.681	0.591	0.535	0.58	0.469	0.698	0.588	0.739	0.557	0.342
NCI-H1975	0.621	0.598	0.46	0.534	0.406	0.32	0.24	0.374	0.357	0.331	0.63	0.683	0.738	0.744	0.687	0.387	0.374	0.357	0.363	0.227
NCI-H1755	1.01	0.887	0.622	0.946	0.62	0.82	0.765	0.78	0.709	0.834	0.836	0.659	0.85	0.809	0.762	0.473	0.394	0.472	0.341	0.213
NCI-H2023	0.748	0.588	0.295	0.547	0.372	0.568	0.538	0.605	0.47	0.498	0.625	0.53	0.711	0.654	0.612	0.616	0.336	0.575	0.332	0.354
EKVX	0.977	0.842	0.535	0.8	0.61	–	0.392	0.273	0.273	0.315	0.77	0.752	0.802	0.907	0.655	0.523	0.603	0.481	0.519	0.366
LCLC-97TM1	0.315	0.244	0.22	0.292	0.222	0.207	0.166	0.205	0.173	0.208	0.731	0.64	0.656	0.632	0.42	0.912	0.731	0.712	0.62	0.623
NCI-H2085	1	0.853	0.713	0.984	0.922	0.551	0.549	0.594	0.621	0.539	0.743	0.835	0.821	0.852	0.727	0.278	0.268	0.282	0.293	0.299
BEN	1.09	1.01	0.877	0.968	0.976	1.14	1.03	0.873	1.14	1.1	0.581	0.527	0.578	0.531	0.528	0.319	0.311	0.377	0.292	0.335
HARA	1.05	0.912	0.688	0.926	0.704	0.749	–	0.613	0.689	0.659	0.501	0.546	0.521	0.495	0.453	0.224	0.323	0.305	0.195	0.22
PC-14	1.08	0.863	0.981	0.931	0.936	0.606	0.65	0.694	0.659	0.796	0.682	0.773	0.764	0.838	0.749	–	0.334	0.349	0.155	0.0674
SW 1573	1.07	0.713	0.745	0.888	0.774	0.571	0.522	0.609	0.548	0.552	0.77	0.564	0.895	0.636	0.679	0.742	0.459	0.72	0.357	0.237
NCI-H1355	0.911	0.803	0.562	0.8	0.531	0.47	0.417	0.392	0.39	0.406	0.716	0.632	0.569	0.611	0.648	0.711	0.532	0.579	0.522	0.36
NCI-H460	0.561	0.394	0.23	0.279	0.0265	0.175	0.132	0.127	0.141	0.107	0.71	0.707	0.711	0.691	0.75	0.527	0.377	0.56	0.388	0.352
NCI-H2126	0.757	0.744	0.625	0.747	0.645	0.558	0.519	0.568	0.58	0.565	0.704	0.744	0.695	0.72	0.663	0.599	0.526	0.715	0.616	0.453
LCLC-103H	1	0.95	0.85	0.966	0.986	0.703	0.666	0.65	0.612	0.71	0.74	0.733	0.613	0.749	0.539	0.418	0.448	0.564	0.382	0.362
